Our source for the Km values is article PMC4565880, “Purification and characterization of a novel β-carotene-9′,10′-oxygenase from Saccharomyces cerevisiae ULI3” (Biotechnology Letters, 2015).

The subject of this assay is T1, ScBCO2 (β-carotene-9′,10′-oxygenase).
T1 construct: native enzyme purified from culture supernatant (ammonium sulfate, Q Sepharose, Superdex-200); ~50 kDa by SDS-PAGE; peptide mass fingerprint matched no database entry
In words: HPLC cleavage assay; Hanes-Woolf plot. In kind it is biochemical, Saccharomyces cerevisiae. As to conditions: standard assay: 100 mM Tricine/KOH pH 8.0, 37 °C, 12.5 μM Fe2SO4, Tween 40; temperature of kinetic runs not stated; substrate 10-800 μM. An excerpt: HPLC cleavage assay; Hanes-Woolf plot on ScBCO2 (β-carotene-9′,10′-oxygenase)
As to `CC1=C[C@H](O)CC(C)(C)[C@H]1/C=C/C(C)=C/C=C/C(C)=C/C=C/C=C(C)/C=C/C=C(C)/C=C/C1=C(C)C[C@@H](O)CC1(C)C` [Lutein], the Km stood at 105 ± 0.3 µM.
For `CC1=CCCC(C)(C)[C@H]1/C=C/C(C)=C/C=C/C(C)=C/C=C/C=C(C)/C=C/C=C(C)/C=C/C1=C(C)CCCC1(C)C` [α-carotene] the value was 48 ± 0.3 µM.
With `CC1=C(/C=C/C(C)=C/C=C/C(C)=C/C=C/C=C(C)/C=C/C=C(C)/C=C/C2=C(C)CCCC2(C)C)C(C)(C)CCC1` [β-carotene], the Km was determined as 37 ± 0.2 µM.
